Tests used:
BChE = BChE (Homo sapiens, UniProt P06276); assay: biochemical; conditions: for inhibition at 1000 µM: 10^–3 M; for inhibition at 100 µM: 10^–4 M; for inhibition at 10 µM: 10^–5 M; for inhibition at 1 µM: 10^–6 M; for inhibition at 0.1 µM: 10^–7 M; for inhibition at 0.01 µM: 10^–8 M; for inhibition at 0.001 µM: 10^–9 M
Procedure: (§1) According to the modified Ellman approach outlined in our team’s earlier work, the AChE and BChE inhibitory activities of the obtained compounds were evaluated.[18]−[21]

AChE = AChE (Homo sapiens, UniProt P22303); assay: biochemical; conditions: for inhibition at 1000 µM: 10^–3 M; for inhibition at 100 µM: 10^–4 M; for inhibition at 10 µM: 10^–5 M; for inhibition at 1 µM: 10^–6 M; for inhibition at 0.1 µM: 10^–7 M; for inhibition at 0.01 µM: 10^–8 M; for inhibition at 0.001 µM: 10^–9 M
AChE, sequence (P22303 32-614): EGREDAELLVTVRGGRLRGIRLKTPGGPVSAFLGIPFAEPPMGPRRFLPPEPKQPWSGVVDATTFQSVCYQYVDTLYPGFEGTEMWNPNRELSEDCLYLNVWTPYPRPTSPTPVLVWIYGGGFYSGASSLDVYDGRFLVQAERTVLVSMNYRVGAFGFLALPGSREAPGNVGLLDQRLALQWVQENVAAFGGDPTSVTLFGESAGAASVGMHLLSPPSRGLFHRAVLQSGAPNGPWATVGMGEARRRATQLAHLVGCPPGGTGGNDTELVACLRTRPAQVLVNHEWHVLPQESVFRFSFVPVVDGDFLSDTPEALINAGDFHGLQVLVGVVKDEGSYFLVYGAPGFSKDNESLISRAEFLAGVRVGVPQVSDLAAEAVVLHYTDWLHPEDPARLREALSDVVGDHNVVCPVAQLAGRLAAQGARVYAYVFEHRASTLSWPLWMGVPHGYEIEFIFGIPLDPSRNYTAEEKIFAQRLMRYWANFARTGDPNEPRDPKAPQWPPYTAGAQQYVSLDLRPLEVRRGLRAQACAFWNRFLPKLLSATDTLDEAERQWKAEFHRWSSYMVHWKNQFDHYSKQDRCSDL
Procedure: as §1

MAO-A = biological target: T1, MAO-A (Homo sapiens, UniProt P21397); assay: In vitro MAO-A inhibition assay (fluorometric); assay type: biochemical; conditions: for inhibition at 1000 µM: 10^–3 M; for inhibition at 100 µM: 10^–4 M
T1 sequence (P21397 1-527): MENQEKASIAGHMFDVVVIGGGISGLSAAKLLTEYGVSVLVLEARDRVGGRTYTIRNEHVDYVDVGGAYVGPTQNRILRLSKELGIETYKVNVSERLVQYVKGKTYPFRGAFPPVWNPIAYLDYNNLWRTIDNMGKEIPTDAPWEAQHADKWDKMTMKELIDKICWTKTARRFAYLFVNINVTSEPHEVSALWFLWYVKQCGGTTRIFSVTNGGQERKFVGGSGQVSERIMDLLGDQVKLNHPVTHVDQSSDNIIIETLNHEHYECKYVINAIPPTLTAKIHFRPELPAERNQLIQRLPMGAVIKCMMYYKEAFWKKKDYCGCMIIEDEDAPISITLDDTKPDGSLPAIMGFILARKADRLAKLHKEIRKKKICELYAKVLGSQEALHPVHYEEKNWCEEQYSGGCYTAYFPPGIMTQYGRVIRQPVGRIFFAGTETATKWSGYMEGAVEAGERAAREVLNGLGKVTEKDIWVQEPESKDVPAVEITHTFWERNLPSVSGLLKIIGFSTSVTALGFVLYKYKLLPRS

MAO-B = biological target: T2, MAO-B (Homo sapiens, UniProt P27338); assay: In vitro MAO-B inhibition assay (fluorometric); assay type: biochemical; conditions: for inhibition at 1000 µM: 10^–3 M; for inhibition at 100 µM: 10^–4 M; for inhibition at 10 µM: 10^–5 M; for inhibition at 1 µM: 10^–6 M; for inhibition at 0.1 µM: 10^–7 M; for inhibition at 0.01 µM: 10^–8 M; for inhibition at 0.001 µM: 10^–9 M
T2 sequence (P27338 1-520): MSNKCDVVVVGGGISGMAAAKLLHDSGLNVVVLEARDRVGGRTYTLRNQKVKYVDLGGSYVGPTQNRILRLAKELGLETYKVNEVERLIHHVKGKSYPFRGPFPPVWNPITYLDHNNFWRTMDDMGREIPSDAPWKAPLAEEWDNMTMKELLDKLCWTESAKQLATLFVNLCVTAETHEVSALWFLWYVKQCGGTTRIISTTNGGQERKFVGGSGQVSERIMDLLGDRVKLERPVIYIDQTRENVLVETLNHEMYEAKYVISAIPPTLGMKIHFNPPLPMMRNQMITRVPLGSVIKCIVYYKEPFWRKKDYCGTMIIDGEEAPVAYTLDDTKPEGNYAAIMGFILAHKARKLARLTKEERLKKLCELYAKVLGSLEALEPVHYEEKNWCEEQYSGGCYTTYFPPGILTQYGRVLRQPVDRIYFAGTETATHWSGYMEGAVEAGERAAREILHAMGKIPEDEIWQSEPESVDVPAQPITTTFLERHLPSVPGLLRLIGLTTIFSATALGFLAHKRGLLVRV

Cytotoxicity test (MTT) = assay type: cell-based; conditions: NIH/3T3 mouse embryonic fibroblast cells (ATCC CRL-1658), NIH/3T3 mouse fibroblast healthy cell line
Procedure: The NIH/3T3 cells were incubated according to the manufacturer’s recommendations. In 96-well plates, NIH/3T3 cells were seeded at a density of 1 × 10^4 cells per well. The MTT test was conducted in line with the previously mentioned standards.[19],[22],[23],[28],[30]

[1] = DPPH free-radical scavenging activity assay; conditions: serial dilution 10^–3–10^–9 M; read-out: IC50 on DPPH antioxidant activity
Procedure: This approach is based on evaluating the free-radical scavenging abilities of the stable 1,1-diphenyl-2-picrylhydrazyl (DPPH) radical. To create the DPHH solution, 9.86 mg of DPPH was weighed and diluted to 25 mL with methanol. The test wells were then filled with 100 μL of the DPPH solution and 100 μL of the test solutions. Only 200 μL of methanol was used for the blank reading, while the control reading required the usage of 100 μL each of methanol and the DPPH solution. Following incubation, a spectrophotometric measurement at 517 nm was carried out.[26],[27]

Beta Amyloid 1–42 (Aβ42) = biological target: T3, Beta Amyloid 1–42 (Aβ42) (Homo sapiens, UniProt P05067); assay: Beta Amyloid 1–42 (Aβ42) inhibitor screening assay; assay type: biochemical; conditions: for inhibition at 100 µM: 10^–4 M
T3 construct: The Beta Amyloid 1–42 (Aβ42) Ligand Screening Assay kit; purchased BioVision, Milpitas, CA
T3 sequence (P05067 672-713 limits assumed): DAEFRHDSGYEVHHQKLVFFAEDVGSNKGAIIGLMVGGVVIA
From the text: The Beta Amyloid 1–42 (Aβ42) Ligand Screening Assay kit (BioVision, Milpitas, CA) technique based on the fluorometric approach served as the basis for the experimental process.[21],[28],[29]

[2] = read-out: % β-amyloid plaque inhibition

BChE, sequence (P06276 29-602): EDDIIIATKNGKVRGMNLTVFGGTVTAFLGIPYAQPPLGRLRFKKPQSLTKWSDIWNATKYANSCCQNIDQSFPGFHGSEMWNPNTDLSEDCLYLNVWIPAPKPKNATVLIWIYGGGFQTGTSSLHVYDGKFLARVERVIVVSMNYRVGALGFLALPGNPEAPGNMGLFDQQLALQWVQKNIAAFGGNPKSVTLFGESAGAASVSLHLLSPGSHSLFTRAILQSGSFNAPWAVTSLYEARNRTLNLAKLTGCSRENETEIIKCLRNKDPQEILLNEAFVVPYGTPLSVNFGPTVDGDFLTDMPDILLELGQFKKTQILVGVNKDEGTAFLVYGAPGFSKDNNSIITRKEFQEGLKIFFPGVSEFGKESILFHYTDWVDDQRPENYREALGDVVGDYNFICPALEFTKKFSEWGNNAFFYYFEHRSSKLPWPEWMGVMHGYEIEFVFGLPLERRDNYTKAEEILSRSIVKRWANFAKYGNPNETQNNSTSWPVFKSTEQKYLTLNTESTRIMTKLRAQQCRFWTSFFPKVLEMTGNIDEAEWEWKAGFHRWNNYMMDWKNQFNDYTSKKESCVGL

SMILES: CCCN(C)CC(=O)Nc1ccc(/C=C2\Cc3cc(OC)c(OC)cc3C2=O)cc1 [D30]
- inhibition at 1000 µM (BChE): 99.6 ± 2.02%
- inhibition at 100 µM (BChE): 46.43 ± 0.408%
- IC50 (AChE): 25.7 ± 0.9 nM
- inhibition at 1000 µM (AChE): 98.2 ± 1.37%
- inhibition at 100 µM (AChE): 96.6 ± 1.28%
- inhibition at 10 µM (AChE): 91.8 ± 1.21%
- inhibition at 1 µM (AChE): 88.3 ± 1.1%
- inhibition at 0.1 µM (AChE): 74.3 ± 1.05%
- inhibition at 0.01 µM (AChE): 36.6 ± 0.627%
- inhibition at 0.001 µM (AChE): 16.4 ± 0.421%
- inhibition at 1000 µM (MAO-A): 74.1 ± 2.09%
- inhibition at 100 µM (MAO-A): 28.3 ± 1.08%
- IC50 (MAO-B): 45.6 ± 1.7 nM
- inhibition at 1000 µM (MAO-B): 97.5 ± 1.39%
- inhibition at 100 µM (MAO-B): 90.2 ± 1.47%
- inhibition at 10 µM (MAO-B): 82.5 ± 1.38%
- inhibition at 1 µM (MAO-B): 74.6 ± 1.29%
- inhibition at 0.1 µM (MAO-B): 66 ± 0.966%
- inhibition at 0.01 µM (MAO-B): 38.1 ± 0.458%
- inhibition at 0.001 µM (MAO-B): 19.8 ± 0.632%
- IC50 (Cytotoxicity test (MTT)): 601 ± 14.5 nM
- IC50 [1]: 246 ± 11 nM
- inhibition at 1000 µM (Beta Amyloid 1–42 (Aβ42); 10^–3 M, read-out: % β-amyloid plaque inhibition): 89.6 ± 1.86%
- inhibition at 100 µM (Beta Amyloid 1–42 (Aβ42); [2]): 81.5 ± 1.96%
- IC50 (Beta Amyloid 1–42 (Aβ42); read-out: IC50 on β-amyloid plaque aggregation): 178 ± 7.4 nM

SMILES: COc1ccc2c(c1)C(=O)/C(=C/c1ccc(NC(=O)CN(C)CCN(C)C)cc1)C2 [D35]
- IC50 (BChE): 151 ± 4.8 nM
- inhibition at 1000 µM (BChE): 90.2 ± 1.39%
- inhibition at 10 µM (BChE): 74.6 ± 1.13%
- inhibition at 1 µM (BChE): 65.9 ± 1.01%
- inhibition at 0.1 µM (BChE): 54.9 ± 0.974%
- inhibition at 0.01 µM (BChE): 33.4 ± 0.814%
- inhibition at 0.001 µM (BChE): 18 ± 0.411%
- IC50 (AChE): 215 ± 8.8 nM
- inhibition at 1000 µM (AChE): 95.7 ± 1.2%
- inhibition at 100 µM (AChE): 91.7 ± 1.47%
- inhibition at 10 µM (AChE): 73.2 ± 1.12%
- inhibition at 1 µM (AChE): 61.8 ± 1.08%
- inhibition at 0.1 µM (AChE): 42.9 ± 0.628%
- inhibition at 0.01 µM (AChE): 33.6 ± 0.52%
- inhibition at 0.001 µM (AChE): 21.5 ± 0.448%
- inhibition at 1000 µM (MAO-A): 88.46 ± 0.758%
- inhibition at 100 µM (MAO-A): 21.7 ± 0.623%
- inhibition at 1000 µM (MAO-B): 90.7 ± 1.25%
- inhibition at 100 µM (MAO-B): 42.5 ± 0.547%
- IC50 (Cytotoxicity test (MTT)): 53900 ± 1220 nM
- IC50 [1]: 238 ± 11 nM

SMILES: COc1cc2c(cc1OC)C(=O)/C(=C/c1ccc(NC(=O)CN(C)CCN(C)C)cc1)C2 [D36]
- inhibition at 1000 µM (BChE): 100 ± 1.25%
- inhibition at 100 µM (BChE): 41 ± 0.608%
- IC50 (AChE): 235 ± 11.3 nM
- inhibition at 1000 µM (AChE): 91.9 ± 1.47%
- inhibition at 100 µM (AChE): 86.6 ± 1.57%
- inhibition at 10 µM (AChE): 78.6 ± 1.03%
- inhibition at 1 µM (AChE): 58.8 ± 0.893%
- inhibition at 0.1 µM (AChE): 38.2 ± 0.539%
- inhibition at 0.01 µM (AChE): 33.1 ± 0.491%
- inhibition at 0.001 µM (AChE): 20.6 ± 0.374%
- inhibition at 1000 µM (MAO-A): 82.4 ± 0.873%
- inhibition at 100 µM (MAO-A): 43 ± 0.771%
- inhibition at 1000 µM (MAO-B): 84.6 ± 1.01%
- inhibition at 100 µM (MAO-B): 45.2 ± 0.584%
- IC50 (Cytotoxicity test (MTT)): 3620 ± 129 nM
- IC50 [1]: 251 ± 10 nM

SMILES: COc1ccc2c(c1)C(=O)/C(=C/c1ccc(NC(=O)CN(C)CCCN(C)C)cc1)C2 [D38]
- IC50 (BChE): 78.2 ± 2.9 nM
- inhibition at 1000 µM (BChE): 93.3 ± 1.37%
- inhibition at 100 µM (BChE): 90.6 ± 1.3%
- inhibition at 10 µM (BChE): 85.4 ± 1.3%
- inhibition at 1 µM (BChE): 78.6 ± 1.11%
- inhibition at 0.1 µM (BChE): 58.7 ± 0.952%
- inhibition at 0.01 µM (BChE): 28.8 ± 0.714%
- inhibition at 0.001 µM (BChE): 18.4 ± 0.633%
- IC50 (AChE): 47.3 ± 1.6 nM
- inhibition at 1000 µM (AChE): 93.2 ± 1.72%
- inhibition at 100 µM (AChE): 90.5 ± 1.3%
- inhibition at 10 µM (AChE): 81.6 ± 1.17%
- inhibition at 1 µM (AChE): 74 ± 0.956%
- inhibition at 0.1 µM (AChE): 68.2 ± 0.862%
- inhibition at 0.01 µM (AChE): 37.2 ± 0.562%
- inhibition at 0.001 µM (AChE): 19.7 ± 0.711%
- inhibition at 1000 µM (MAO-A): 95 ± 2.39%
- inhibition at 100 µM (MAO-A): 24.1 ± 0.853%
- IC50 (MAO-B): 35.9 ± 1.3 nM
- inhibition at 1000 µM (MAO-B): 94.8 ± 1.43%
- inhibition at 100 µM (MAO-B): 88.6 ± 1.38%
- inhibition at 10 µM (MAO-B): 84.6 ± 1.58%
- inhibition at 1 µM (MAO-B): 78.2 ± 1.41%
- inhibition at 0.1 µM (MAO-B): 62.5 ± 0.925%
- inhibition at 0.01 µM (MAO-B): 42.3 ± 0.623%
- inhibition at 0.001 µM (MAO-B): 20.7 ± 0.318%
- IC50 (Cytotoxicity test (MTT)): 6810 ± 118 nM
- IC50 [1]: 190 ± 7.8 nM
- inhibition at 100 µM (Beta Amyloid 1–42 (Aβ42); [2]): > 50%
